Assay results from article PMC8678482, “Suppression of the Lycopene Cyclase Gene Causes Downregulation of Ascorbate Peroxidase Activity and Decreased Glutathione Pool Size, Leading to H2O2 Accumulation in Euglena gracilis” (Frontiers in Plant Science, 2021).

Biological target: T1, EgLCY (Euglena gracilis, UniProt A0A7I8I611)
T1 construct: gene lcy; full-length open reading frame in pETDuet-1 (pET-EgLCY, NcoI In-Fusion), expressed in lycopene-accumulating E. coli BL21(DE3) carrying pACCRT-EIB
T1 sequence (A0A7I8I611 1-652): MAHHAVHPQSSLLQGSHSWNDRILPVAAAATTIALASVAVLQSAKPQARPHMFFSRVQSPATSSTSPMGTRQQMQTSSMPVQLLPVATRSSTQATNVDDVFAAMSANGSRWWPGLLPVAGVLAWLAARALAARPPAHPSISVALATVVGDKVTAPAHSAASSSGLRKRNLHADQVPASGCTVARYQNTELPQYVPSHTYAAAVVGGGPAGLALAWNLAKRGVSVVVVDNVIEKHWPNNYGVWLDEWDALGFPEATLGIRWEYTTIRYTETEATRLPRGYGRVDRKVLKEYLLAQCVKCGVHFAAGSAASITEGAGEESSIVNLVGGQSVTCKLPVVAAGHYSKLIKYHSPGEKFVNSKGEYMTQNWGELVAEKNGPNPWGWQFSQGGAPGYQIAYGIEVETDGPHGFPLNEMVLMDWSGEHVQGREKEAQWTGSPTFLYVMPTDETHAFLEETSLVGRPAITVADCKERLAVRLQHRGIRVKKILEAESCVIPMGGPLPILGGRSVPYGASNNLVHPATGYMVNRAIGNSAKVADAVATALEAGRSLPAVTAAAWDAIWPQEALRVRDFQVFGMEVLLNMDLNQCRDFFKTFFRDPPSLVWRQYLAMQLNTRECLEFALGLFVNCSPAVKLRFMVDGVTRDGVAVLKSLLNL
Test: in vivo conversion in lycopene-accumulating E. coli, HPLC of carotenoid extracts
Format: cell-based
Settings: co-expression with Pantoea ananatis crtE, crtB, crtI; 48 h at 21°C after IPTG

| Compound | in vivo conversion in lycopene-accumulating E. coli, HPLC of carotenoid extracts |
| --- | --- |
| CC1=C(/C=C/C(C)=C/C=C/C(C)=C/C=C/C=C(C)/C=C/C=C(C)/C=C/C2=C(C)CCCC2(C)C)C(C)(C)CCC1 [β-carotene] | accumulated β-carotene as the main carotenoid when the EgLCY gene was co-expressed |
| CC(C)=CCC/C(C)=C/C=C/C(C)=C/C=C/C(C)=C/C=C/C=C(C)/C=C/C=C(C)/C=C/C=C(\C)CCC=C(C)C [lycopene] | This indicates that EgLCY is a lycopene β-cyclase that converts lycopene to β-carotene. |
